# Measured values published in ChEMBL document CHEMBL1151574, “Convergent syntheses and cytostatic properties of 2-chloro-2-deoxy-2-fluoroadenosine and its N7-isomer” (1995).
# Activity calls are given as the source filed them. The calls are words filed in the database; no cut-off is given here.
# Assays:
# Raji [1] = assay: In vitro toxicity against Burkitt's lymphoma (B-cell) (Raji) at a concentration of 0.01 ug/ml; assay type: functional, Homo sapiens
# U-937 [2] = assay: In vitro toxicity against histocytic lymphoma (U-937) at a concentration of 1.0 ug/ml; assay type: functional, Homo sapiens
# U-937 [3] = assay: In vitro toxicity against histocytic lymphoma (U-937) at a concentration of 0.1 ug/ml; assay type: functional, Homo sapiens
# PHA-Ly [4] = assay: In vitro toxicity against phytohemagglutininin-stimulated peripheral blood lymphocytes (PHA-Ly) at a concentration of 0.1 ug/ml; assay type: functional, Homo sapiens
# MOLT-3 [5] = assay: In vitro toxicity against acute T cell leukemia (MOLT-3) at a concentration of 0.1 ug/ml; assay type: functional, Homo sapiens
# MOLT-3 [6] = assay: In vitro toxicity against acute T cell leukemia (MOLT-3) at a concentration of 1.0 ug/ml; assay type: functional, Homo sapiens
# IM-9 [7] = assay: In vitro toxicity against myeloma cell line (IM-9) at a concentration of 1.0 ug/ml; assay type: functional, Homo sapiens
# MOLT-3 [8] = assay: In vitro toxicity against acute T cell leukemia (MOLT-3) at a concentration of 10 ug/ml; assay type: functional, Homo sapiens
# U-937 [9] = assay: In vitro toxicity against histocytic lymphoma (U-937) at a concentration of 0.01 ug/ml; assay type: functional, Homo sapiens
# PHA-Ly [10] = assay: In vitro toxicity against phytohemagglutininin-stimulated peripheral blood lymphocytes (PHA-Ly) at a concentration of 0.01 ug/ml; assay type: functional, Homo sapiens
# Raji [11] = assay: In vitro toxicity against Burkitt's lymphoma (B-cell) (Raji) at a concentration of 10 ug/ml; assay type: functional, Homo sapiens
# MOLT-3 [12] = assay: In vitro toxicity against acute T cell leukemia (MOLT-3) at a concentration of 0.01 ug/ml; assay type: functional, Homo sapiens
# IM-9 [13] = assay: In vitro toxicity against myeloma cell line (IM-9) at a concentration of 0.1 ug/ml; assay type: functional, Homo sapiens
# Raji [14] = assay: In vitro toxicity against Burkitt's lymphoma (B-cell) (Raji) at a concentration of 1.0 ug/ml; assay type: functional, Homo sapiens
# IM-9 [15] = assay: In vitro toxicity against myeloma cell line (IM-9) at a concentration of 10 ug/ml; assay type: functional, Homo sapiens
# U-937 [16] = assay: In vitro toxicity against histocytic lymphoma (U-937) at a concentration of 10 ug/ml; assay type: functional, Homo sapiens
# Raji [17] = assay: In vitro toxicity against Burkitt's lymphoma (B-cell) (Raji) at a concentration of 0.1 ug/ml; assay type: functional, Homo sapiens
# PHA-Ly [18] = assay: In vitro toxicity against phytohemagglutininin-stimulated peripheral blood lymphocytes (PHA-Ly) at a concentration of 10 ug/ml; assay type: functional, Homo sapiens
# IM-9 [19] = assay: In vitro toxicity against myeloma cell line (IM-9) at a concentration of 0.01 ug/ml; assay type: functional, Homo sapiens
# PHA-Ly [20] = assay: In vitro toxicity against phytohemagglutininin-stimulated peripheral blood lymphocytes (PHA-Ly) at a concentration of 1.0 ug/ml; assay type: functional, Homo sapiens
# MOLT-3 [21] = assay: In vitro toxicity against acute T cell leukemia (MOLT-3) at a concentration of 10 ug/ml; No significant toxicity; assay type: functional, cell-based; conditions: Homo sapiens
# IM-9 [22] = assay: In vitro toxicity against myeloma cell line (IM-9) at a concentration of 10 ug/ml; No significant toxicity; assay type: functional, cell-based; conditions: Homo sapiens
# PHA-Ly [23] = assay: In vitro toxicity against phytohemagglutininin-stimulated peripheral blood lymphocytes (PHA-Ly) at a concentration of 10 ug/ml; No significant toxicity; assay type: functional, cell-based; conditions: Homo sapiens
# U-937 [24] = assay: In vitro toxicity against histocytic lymphoma (U-937) at a concentration of 10 ug/ml; No significant toxicity; assay type: functional, cell-based; conditions: Homo sapiens
# Raji [25] = assay: In vitro toxicity against Burkitt's lymphoma (B-cell) (Raji) at a concentration of 10 ug/ml; No significant toxicity; assay type: functional, cell-based; conditions: Homo sapiens
smiles,measurement,setting,value
"Nc1nc(Cl)nc2c1ncn2[C@@H]1O[C@H](CO)C(O)[C@H]1F (single isomer, unassigned)",Toxicity,Raji [1],103%
same,Toxicity,U-937 [2],4.9%
same,Toxicity,U-937 [3],70%
same,Toxicity,PHA-Ly [4],90%
same,Toxicity,MOLT-3 [5],79%
same,Toxicity,MOLT-3 [6],3.3%
same,Toxicity,IM-9 [7],19%
same,Toxicity,MOLT-3 [8],2.6%
same,Toxicity,U-937 [9],99%
same,Toxicity,PHA-Ly [10],98%
same,Toxicity,Raji [11],2.5%
same,Toxicity,MOLT-3 [12],106%
same,Toxicity,IM-9 [13],110%
same,Toxicity,Raji [14],9.1%
same,Toxicity,IM-9 [15],5.7%
same,Toxicity,U-937 [16],1.8%
same,Toxicity,Raji [17],68%
same,Toxicity,PHA-Ly [18],4%
same,Toxicity,IM-9 [19],108%
same,Toxicity,PHA-Ly [20],17%
"Nc1nc(Cl)nc2ncn([C@@H]3O[C@H](CO)C(O)[C@H]3F)c12 (single isomer, unassigned)",Toxicity,MOLT-3 [21],inactive
same,Toxicity,IM-9 [22],inactive
same,Toxicity,PHA-Ly [23],inactive
same,Toxicity,U-937 [24],inactive
same,Toxicity,Raji [25],inactive
